Measured values: patent publication US5618837A, “PDGF antagonists III” (ZymoGenetics, Inc., priority 1995, dated 1997)

Columns and labels:
[1] = tested on: EGF-induced SRE-luciferase expression in SWISS3T3 cells; experiment: SRE-luciferase reporter antagonist assay, EGF induction; assay type: cell-based; conditions: 4.5 ng/ml EGF; SWISS3T3/KZ67-G1-6 cells; 5 hours at 37° C.
Procedure: (§1) Initial characterization of Brefeldin A as a non-peptide PDGF antagonist was made possible through an SRE-Luciferase high through-put assay system which identifies substances that are able to block expression of a serum response element (SRE)-luciferase reporter gene expressed in SWISS3T3 cells. […] The degree of antagonist specificity can be determined by comparing the resultant signal for the three growth factors (PDGF, bFGF, and EGF). […]
(§2) Folowing induction, luciferase activity was measured using a Promega luciferase assay kit (E1500; Promega Corp., Madison, Wis.) according to the assay kit protocol. […] The amount of luminescence (relative light units, RLU) was determined following a 1 second mix and a 1-3 integration of signal. Basal (uninduced) luciferase signal was substracted from all measurements,and the luciferase signal induced by test samples was expressed as a percentage of the signal from the controls. […]

[2] = tested on: PDGF-BB mitogenic activity on baboon smooth muscle cells; experiment: Inhibition of PDGF-BB mitogenic activity on baboon smooth muscle cells ([3H] thymidine incorporation); assay type: cell-based
Procedure: Brefeldin A was analyzed for the ability to inhibit the mitogenic activity of PDGF on baboon smooth muscle cells. All mitogenesis assays performed on baboon vascular smooth muscle cells (BVSMCs) were done on primary cultures of cells between passages 13 and 20 in culture. The initial cultures were established from outgrowth of aortic tissue explants. Baboon smooth muscle cells were plated at approximately 20,000 cells per well, in DMEM supplemented with 10% fetal calf serum, into 24-well culture dishes. One day prior to use the culture media was removed, and 1 ml of Mito Media (Table 3) was added to each well to allow the cells to become quiescent. At the time of the experiment the cells were stimulated with PDGF-BB. […] 20X stock solutions were made for each of the PDGF concentrations by dilution in 10 mM acetic acid containing 0.25% albumin, and 50 μl of PDGF or dilution vehicle alone was added to the culture wells. To analyze the activity of Brefeldin A to neutralize PDGF-BB mitogenic activity, 1 ng/ml of PDGF was added to wells along with dilutions of Brefeldin A. The cells were incubated with the test samples for approximately 20 hours at 37° C. Fifty μl of a 20x stock solution was then added to each well to give a final concentration of 1 μCi/ml. The cells were incubated for 4 hours at 37° C., washed with PBS, then harvested with trypsin and counted for [^3 H] thymidine incorporation in a Wallac (Turku, Finland) Betaplate™ liquid scintillation counter. […] As part of this same experiment, the inhibitory potency of Brefeldin A was analyzed in the presence of heparin to determine if heparin is able to act in a combinatorial manner with Brefeldin A for inhibiting PDGF-BB mitogenic activity. Baboon smooth muscle cells were incubated in Brefeldin A with 1 ng/ml PDGF-BB in the presence of 0.5 U/ml of unfractionated heparin. The cells were pulse-labeled with [^3 H] thymidine as described above, and the level of [^3 H] thymidine incorporation was determined.

[3] = tested on: 125I-PDGF-BB binding to rat SMCs; experiment: Inhibition of 125I-PDGF-BB binding to rat smooth muscle cells; conditions: 4° C.; for % Control Binding: negative control = 100, 90 min; for 125I PDGF-BB Bound (CPM): specific cpm, nonspecific subtracted, negative control 10006
Procedure: Brefeldin A was analyzed for the ability to inhibit ^125 I-PDGF-BB binding to monolayers of rat SMCs. SMCs were plated at approximately 20,000 cells/well in 24-well culture dishes. The cells were used for assay 2-7 days after plating. The test compound was diluted in binding media (500 ml Hams F-12 (Gibco BRL), 12 ml 1M Hepes pH 7.4, 5 ml 100X PSN, 1 gm rabbit serum albumin (Sigma Chemical Co., St. Louis, Mo.) to the concentrations shown in Table 2, then added to the SMCs (1 ml/well) in triplicate. To the wells was then added 50 μl of a ^125 I-PDGF-BB binding stock solution. Binding media alone was used as the negative control, and the addition of 200 ng/ml of PDGF-BB was used to determine nonspecific binding for ^125 I-PDGF-BB. The cells were incubated for approximately 11/2 hours at 4° C., then washed with binding media to remove unbound ligand. The cells were then incubated with extraction buffer (20 mM Tris-HCl pH 8.0, 100 mM NaCl, 1 mM EDTA, 0.5% sodium deoxycholate, 10 mM NaI, 1% bovine serum albumin), and the extracts were harvested and counted in a gamma counter. The data are presented as specific cpm bound for ^125 I-PDGF-BB. Nonspecific binding, determined by the addition of 200 ng/ml of unlabeled PDGF-BB, was 853 cpm, and has been subtracted from the data presented.

[4] = tested on: bFGF-induced SRE-luciferase expression in SWISS3T3 cells; experiment: SRE-luciferase reporter antagonist assay, bFGF induction; assay type: cell-based; conditions: 2.0 ng/ml bFGF; SWISS3T3/KZ67-G1-6 cells; 5 hours at 37° C.
Procedure: as §1, §2

`CC1CCCC=CC2CC(O)CC2C(O)C=CC(=O)O1` (centres unmarked) [Brefeldin A, 1,6,7,8,9,11a,12,13,14,14a-Decahydro-1,13-dihydroxy-6-methyl-4H-cyclopent[f]oxacyclotridecin-4-one] was tested, and the “EGF EC50” value [1] was “No activity”, the “PDGF-BB mitogenic activity inhibition (in words)” value ([2]; 1 ng/ml PDGF-BB) was “inhibited by Brefeldin A in a dose dependent fashion” and the “3H Thymidine (CPM Incorporated), (+) 0.5 U/ml Heparin” value (from here on “3H Thymidine … (+) 0.5 U/ml Heparin”) ([2]; 12.5 nM, 1 ng/ml PDGF-BB) was 854 CPM. For the same molecule, the “3H Thymidine (CPM Incorporated), (-) Heparin” value (“3H Thymidine … (-) Heparin” for short) ([2]; 12.5 nM, 1 ng/ml PDGF-BB) was 1293 CPM, the “3H Thymidine … (+) 0.5 U/ml Heparin” value ([2]; 25 nM, 1 ng/ml PDGF-BB) was 684 CPM and the “3H Thymidine … (-) Heparin” value ([2]; 25 nM, 1 ng/ml PDGF-BB) was 798 CPM. For the same molecule, the “3H Thymidine … (+) 0.5 U/ml Heparin” value ([2]; 50 nM, 1 ng/ml PDGF-BB) was 44 CPM, the “3H Thymidine … (-) Heparin” value ([2]; 50 nM, 1 ng/ml PDGF-BB) was 36 CPM and the “3H Thymidine … (+) 0.5 U/ml Heparin” value ([2]; 100 nM, 1 ng/ml PDGF-BB) was 31 CPM. The “3H Thymidine … (-) Heparin” value ([2]; 100 nM, 1 ng/ml PDGF-BB) was 39 CPM, the IC50 ([2]; Papio anubis, 1 ng/ml PDGF-BB, baboon smooth muscle cells, read-out: ED50 for the inhibition of PDGF-BB mitogenic activity) was ~25 nM and the “doses inhibiting PDGF-BB mitogenic activity versus doses required to inhibit PDGF binding to rat SMCs” value ([2]; baboon SMC mitogenesis vs rat SMC binding, fold lower) was 1000 fold. The “inhibition of [3H] thymidine on addition of heparin (in words)” value ([2]; with 0.5 U/ml unfractionated heparin, 1 ng/ml PDGF-BB, versus Brefeldin A alone) was “further inhibition of [^3 H] thymidine above that achieved by Brefeldin A alone”, the “% Control Binding” value ([3]; 50 μM) was 92% and the “125I PDGF-BB Bound (CPM)” value ([3]; 50 μM) was 9199 CPM. The “% Control Binding” value ([3]; 100 μM) was 89%, the “125I PDGF-BB Bound (CPM)” value ([3]; 100 μM) was 8879 CPM and the “bFGF EC50” value [4] was “No activity”.

B1: PDGF-BB: platelet derived growth factor (protein, UniProt P01127 82-190, looked up)
Platelet-derived growth …: SLGSLTIAEPAMIAECKTRTEVFEISRRLIDRTNANFLVWPPCVEVQRCSGCCNNRNVQCRPTQVQLRPVQVRKIEIVRKKPIFKKATVTLEDHLACKCETVAAARPVT
In the case of B1, the “3H Thymidine … (-) Heparin” value ([2]; PDGF-BB standard curve, 0.062 ng/ml) is reported as 120 CPM, the “3H Thymidine … (-) Heparin” value ([2]; PDGF-BB standard curve, 0.125 ng/ml) is reported as 226 CPM and the “3H Thymidine … (-) Heparin” value ([2]; PDGF-BB standard curve, 0.25 ng/ml) is reported as 392 CPM. The “3H Thymidine … (-) Heparin” value ([2]; PDGF-BB standard curve, 0.5 ng/ml, 0 ng/ml gives 74) was 959 CPM and the “3H Thymidine … (-) Heparin” value ([2]; PDGF-BB standard curve, 1 ng/ml) was 1701 CPM.
